Measurements as given in ChEMBL document CHEMBL1201862, “PubChem BioAssay data set” (2004).
Activity calls are given as the source filed them.

Key:
[1] = biological target: Photoreceptor-specific nuclear receptor (Homo sapiens, UniProt Q9Y5X4); type: functional, cell-based;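 also: CHO-S cells with Gal4-NCOR and VP16-NR2E3 two-hybrid luciferase reporter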
[2] = biological target: T1, Microphthalmia-associated transcription factor (Homo sapiens, UniProt O75030); test: reducers of TRPM1 reporter luminescence, concentration series – cell-based, SK-MEL-5, cherry-picked, set 3, MITF inhibitor project, dose response (AID 493073); type: functional;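 also: SK-MEL-5 melanoma cells with luciferase driven by the MITF target TRPM1 promoter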
T1 sequence (O75030 whole entry): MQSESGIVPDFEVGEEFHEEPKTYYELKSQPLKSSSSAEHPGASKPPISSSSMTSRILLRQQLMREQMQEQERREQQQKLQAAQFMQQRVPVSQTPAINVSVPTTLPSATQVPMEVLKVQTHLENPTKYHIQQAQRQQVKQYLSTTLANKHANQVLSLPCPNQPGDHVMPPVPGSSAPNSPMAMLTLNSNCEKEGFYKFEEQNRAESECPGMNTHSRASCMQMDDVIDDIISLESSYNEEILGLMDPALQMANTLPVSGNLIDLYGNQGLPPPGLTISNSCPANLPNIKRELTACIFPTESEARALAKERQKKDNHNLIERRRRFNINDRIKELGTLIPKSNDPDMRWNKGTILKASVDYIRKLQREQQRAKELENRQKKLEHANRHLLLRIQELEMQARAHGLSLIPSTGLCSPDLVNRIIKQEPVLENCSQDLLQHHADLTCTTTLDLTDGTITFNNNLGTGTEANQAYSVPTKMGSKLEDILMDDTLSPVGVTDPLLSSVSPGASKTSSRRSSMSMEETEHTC

[3] = system: HEK293; test: inhibition of NOD1-driven NF-kB reporter – cell-based, luminescence, uHTS, primary screen (AID 1578); type: functional; conditions: Homo sapiens
[4] = system: HEK293; test: cells; type: functional, cell-based; conditions: Homo sapiens
[5] = biological target: T2, Heat shock factor protein 1 (Mus musculus, UniProt P38532); test: decrease of HSF1-responsive luciferase luminescence – cell-based, NIH3T3, dose retest, confirmation (AID 2382); type: functional;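 also: NIH3T3 fibroblasts with HSF1-driven luciferase reporter stressed by proteasome inhibitor MG132; luminescence from HSF1-driven luciferase expression after 8 hours of MG132 stress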
T2 sequence (P38532 whole entry): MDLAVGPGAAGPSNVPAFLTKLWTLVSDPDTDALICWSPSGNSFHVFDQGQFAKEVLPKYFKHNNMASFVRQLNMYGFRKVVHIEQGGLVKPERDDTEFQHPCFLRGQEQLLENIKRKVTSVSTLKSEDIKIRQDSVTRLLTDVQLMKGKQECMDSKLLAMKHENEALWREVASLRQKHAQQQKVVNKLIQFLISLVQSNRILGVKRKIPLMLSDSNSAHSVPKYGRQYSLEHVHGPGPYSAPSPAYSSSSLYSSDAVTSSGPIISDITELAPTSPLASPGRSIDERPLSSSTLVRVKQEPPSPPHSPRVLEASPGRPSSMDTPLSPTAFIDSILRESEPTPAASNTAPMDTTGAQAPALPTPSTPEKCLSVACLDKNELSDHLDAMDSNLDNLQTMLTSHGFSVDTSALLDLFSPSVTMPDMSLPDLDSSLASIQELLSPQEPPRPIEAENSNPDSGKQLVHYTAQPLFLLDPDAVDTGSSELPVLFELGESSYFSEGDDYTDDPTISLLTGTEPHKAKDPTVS

[6] = system: HEK293; test: NOD2 signaling inhibitors in MDP-stimulated cells, cell-based, uHTS, luminescence (AID 2001); type: functional; conditions: Homo sapiens
[7] = system: HEK293; test: cells; type: functional, cell-based; conditions: Homo sapiens; remark: listed apart in the source
[8] = system: HEK293; test: cells; type: functional, cell-based; conditions: Homo sapiens; remark: listed apart in the source
[9] = toxicity toward HepG2 liver cells – cell-based, plate reader, cherry-pick, antagonist series, cytotoxicity control, dose response (AID 743416); type: functional
[10] = viability loss in HEK293 cells – cell-based, plate reader, cherry-picked samples, cytotoxicity control, dose response (AID 743446); type: functional
[11] = blockade of melanocortin 4 receptor signaling – cell-based, plate reader, cherry pick, counter-screen for LGR2 antagonist project, dose response (AID 743444); type: functional;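 also: transfected HEK 293 cells stimulated with alpha-MSH peptide; potency of inhibitors of the alpha-MSH evoked signal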
[12] = blockers of bursicon-stimulated LGR2 cAMP reporter – cell-based, HEK293, CRE-luciferase reporter, cherry pick, set 2, dose response (AID 743343); type: functional;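 also: transfected cells were stimulated with diluted bursicon conditioned medium after compound addition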
[13] = A549 cell cytotoxicity, dose response, cytotoxicity control, plate reader, cherry-pick, antagonist series (AID 743412); type: functional, cell-based
[14] = biological target: Nucleotide-binding oligomerization domain-containing protein 2 (Homo sapiens, UniProt Q9HC29); test: inhibition of NOD2-driven NF-kB reporter – cell-based, luminescence, uHTS, HEK293 (AID 1566); type: functional
Chain of Nucleotide-binding oligomerization domain-containing protein 2 (Q9HC29 whole entry, the tested form may be a part): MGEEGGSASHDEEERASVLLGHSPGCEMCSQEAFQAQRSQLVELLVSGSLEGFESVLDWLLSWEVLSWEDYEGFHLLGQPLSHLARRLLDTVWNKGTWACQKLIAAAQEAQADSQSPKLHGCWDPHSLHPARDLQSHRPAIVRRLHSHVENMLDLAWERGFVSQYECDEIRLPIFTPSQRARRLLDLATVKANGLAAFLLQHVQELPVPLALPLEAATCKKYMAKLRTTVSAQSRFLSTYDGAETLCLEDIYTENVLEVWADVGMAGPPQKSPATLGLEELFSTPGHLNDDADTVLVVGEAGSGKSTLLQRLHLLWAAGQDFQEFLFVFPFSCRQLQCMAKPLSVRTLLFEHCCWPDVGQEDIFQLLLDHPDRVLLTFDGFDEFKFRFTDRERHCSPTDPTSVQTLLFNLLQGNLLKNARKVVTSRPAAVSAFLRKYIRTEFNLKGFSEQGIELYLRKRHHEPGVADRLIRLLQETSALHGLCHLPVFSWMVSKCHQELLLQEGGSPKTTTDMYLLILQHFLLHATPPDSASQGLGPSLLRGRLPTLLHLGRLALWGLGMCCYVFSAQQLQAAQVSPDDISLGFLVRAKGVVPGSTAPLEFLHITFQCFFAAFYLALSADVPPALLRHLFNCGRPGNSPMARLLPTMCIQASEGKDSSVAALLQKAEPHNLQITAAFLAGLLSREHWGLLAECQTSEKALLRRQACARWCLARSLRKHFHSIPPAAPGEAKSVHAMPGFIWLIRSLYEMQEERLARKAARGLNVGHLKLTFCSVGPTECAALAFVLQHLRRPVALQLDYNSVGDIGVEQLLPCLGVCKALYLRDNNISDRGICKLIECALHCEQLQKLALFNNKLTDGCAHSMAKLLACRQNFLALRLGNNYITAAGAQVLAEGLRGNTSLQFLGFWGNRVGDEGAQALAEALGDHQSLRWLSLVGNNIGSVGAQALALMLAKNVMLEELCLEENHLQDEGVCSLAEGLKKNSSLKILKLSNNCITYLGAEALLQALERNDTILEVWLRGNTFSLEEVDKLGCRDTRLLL

[15] = HIV-1 AD8 envelope cell-cell fusion blockers – cherry-pick, dose response (AID 652062); type: functional, cell-based;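 also: luciferase signal from cell-cell fusion driven by HIV-1 clade B AD8 Env; potency is for inhibitors of fusion seen as a drop in luminescence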
[16] = HEK-293T viability loss after treatment – luminescence, T-cell screen hits, cytotoxicity control for TCR NF-kB inhibitor project, dose response (AID 489026); type: functional, cell-based;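 also: cells exposed to compound about 14 hours before the viability readout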
[17] = blockers of HIV-1 envelope-mediated cell-cell fusion – cherry-pick, dose response (AID 652057); type: functional, cell-based
[18] = blockers of HIV-1 ZM109 envelope-driven cell-cell fusion – HeLa effector, CEM target cells, luciferase, cherry-pick, dose response (AID 652058); type: functional, cell-based;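 also: luciferase signal from HIV-1 Env mediated cell-cell fusion of effector and target cells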

Chain of Photoreceptor-specific nuclear receptor (Q9Y5X4 whole entry, the tested form may be a part): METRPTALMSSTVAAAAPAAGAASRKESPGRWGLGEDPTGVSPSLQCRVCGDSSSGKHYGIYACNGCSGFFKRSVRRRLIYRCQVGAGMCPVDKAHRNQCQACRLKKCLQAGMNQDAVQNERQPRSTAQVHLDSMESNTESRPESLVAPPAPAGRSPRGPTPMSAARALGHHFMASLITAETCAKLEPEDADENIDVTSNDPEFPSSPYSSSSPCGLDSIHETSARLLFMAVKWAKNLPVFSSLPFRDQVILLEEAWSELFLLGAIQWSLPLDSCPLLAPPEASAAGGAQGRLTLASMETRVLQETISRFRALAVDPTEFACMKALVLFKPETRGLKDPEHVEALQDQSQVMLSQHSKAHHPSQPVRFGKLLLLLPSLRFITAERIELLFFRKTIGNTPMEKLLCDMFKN

Compound | IC50 [1] | AC50 [2] | EC50 [3] | IC50 [4] | EC50 [5] | IC50 [6] | IC50 [7] | IC50 [8] | AC50 [9] | AC50 [10] | AC50 [11] | AC50 [12] | AC50 [13] | EC50 [14] | AC50 [15] | IC50 [16] | AC50 [17] | AC50 [18]
Cc1cc(C)c(C#N)c(SCc2nnc(-c3ccccc3)o2)n1 | 35.7 µM (inactive) | 24 nM (active) | 10.5 µM (active) | > 20 µM (inactive) | < 160 nM (active) | 12.6 µM (inactive) | 6.41 µM (active) | > 20 µM (inactive) | > 52 µM (inactive) | > 52 µM (inactive) | 321 nM (active) | 281 nM (active) | > 52 µM (inactive) | < 310 nM (inactive) | – | – | – | –
Clc1ccc2c(c1)C(C1=NCCN1)c1ccccc1CS2 (stereo not drawn) | – | – | – | – | – | – | – | – | – | – | – | – | – | – | 4.39 µM (active) | > 80 µM (inactive) | 1.48 µM (active) | 2.07 µM (active)
